pIC50: −log10 of the molar value. Active and inactive are the calls of the source. The rule behind the calls is not given here. Square brackets hold non-standard residues; d marks the D form. Peptide text beside a SMILES is read from it. * marks the point of attachment. Hyp = O=C(O)[C@@H]1C[C@@H](O)CN1; ONp = O=[N+]([O-])c1ccc(O*)cc1; Cbz = O=C(OCc1ccccc1)*; Boc = CC(C)(C)OC(=O)*; OBn = c1ccc(CO*)cc1

Experimental findings from ChEMBL document CHEMBL3612063, “Multistage virtual screening and identification of novel HIV-1 protease inhibitors by integrating SVM, shape, pharmacophore and docking methods” (Eur J Med Chem, 2015) are described below.

Experiment [1] deals with Protease (Human immunodeficiency virus 1) (UniProt Q9YQ12). As to the kind of experiment: Inhibition of recombinant HIV1 protease at 2 uM using FRET substrate peptide by FRET assay.
Experiment [2] has the same target. The experiment in a line: Inhibition of recombinant HIV1 protease at 1 mM using FRET substrate peptide by FRET assay.
In experiment [3] the target is Protease (Human immunodeficiency virus 1, UniProt Q9YQ12). As to the kind of experiment: Inhibition of recombinant HIV1 protease using FRET substrate peptide by FRET assay.
Sequence of Protease (Q9YQ12 whole entry): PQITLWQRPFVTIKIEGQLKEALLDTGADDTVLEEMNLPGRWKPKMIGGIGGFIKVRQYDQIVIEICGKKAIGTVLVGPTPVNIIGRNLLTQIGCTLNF

Sequence of Protease (Human immunodeficiency virus 1) (Q9YQ12 as listed by the source): as the sequence (Q9YQ12 whole entry) above

Regarding `CC(C)CC(=O)N[C@H](C(=O)N[C@H](C(=O)N[C@@H](CC(C)C)[C@@H](O)CC(=O)N[C@@H](C)C(=O)N[C@@H](CC(C)C)[C@@H](O)CC(=O)O)C(C)C)C(C)C`, the inhibition entry in experiment [1] is “Active”.

On to `CC(C)C[C@@H](NC(=O)[C@H](CSCc1ccccc1)NC(=O)OCc1ccccc1)C(=O)OCc1ccccc1`, for which the inhibition result in experiment [2] is “inactive”.

As to `C[C@@H](NC(=O)[C@H](Cc1ccccc1)NC(=O)[C@H](Cc1ccccc1)NC(=O)OC(C)(C)C)C(=O)OCc1ccccc1`, the inhibition entry in experiment [2] was “inactive”.

Consider `CC(C)[C@H](NC(=O)[C@H](Cc1ccccc1)NC(=O)OC(C)(C)C)C(=O)NCC(=O)OCc1ccccc1` (Boc-Phe-Val-Gly-OBn), for which, in experiment [2], the inhibition entry is “inactive”.

As to `COC(=O)[C@H](Cc1ccc(O)cc1)NC(=O)[C@H](CC(C)C)NC(=O)[C@H](CO)NC(=O)OCc1ccccc1` (Cbz-Ser-Leu-Tyr-OMe), the negative-log IC50 (pIC50) (in general, the negative decadic logarithm of the IC50, by convention in mol/L) in experiment [3] is 3.79. In experiment [2], the inhibition entry was “Active”.

Consider `COC(=O)[C@H](CC(C)C)NC(=O)[C@H](Cc1ccccc1)NC(=O)[C@H](CO)NC(=O)OCc1ccccc1` (Cbz-Ser-Phe-Leu-OMe), for which the pIC50 in experiment [3] was 4.21. Also, the inhibition entry in experiment [2] is “Active”.

On to `O=C(CNC(=O)[C@@H]1CCCN1C(=O)[C@@H]1C[C@@H](O)CN1C(=O)OCc1ccccc1)Oc1ccc([N+](=O)[O-])cc1` (Cbz-[Hyp]-Pro-Gly-ONp), for which the inhibition entry in experiment [2] was “inactive”.
